We go through 23 compounds from US11667602B2, “Compounds and their use” (AstraZeneca AB, priority 2020, dated 2023).

The assay has as its target T1, human RXFP1 (Homo sapiens, UniProt Q9HBX9).
T1 sequence (Q9HBX9 1-757): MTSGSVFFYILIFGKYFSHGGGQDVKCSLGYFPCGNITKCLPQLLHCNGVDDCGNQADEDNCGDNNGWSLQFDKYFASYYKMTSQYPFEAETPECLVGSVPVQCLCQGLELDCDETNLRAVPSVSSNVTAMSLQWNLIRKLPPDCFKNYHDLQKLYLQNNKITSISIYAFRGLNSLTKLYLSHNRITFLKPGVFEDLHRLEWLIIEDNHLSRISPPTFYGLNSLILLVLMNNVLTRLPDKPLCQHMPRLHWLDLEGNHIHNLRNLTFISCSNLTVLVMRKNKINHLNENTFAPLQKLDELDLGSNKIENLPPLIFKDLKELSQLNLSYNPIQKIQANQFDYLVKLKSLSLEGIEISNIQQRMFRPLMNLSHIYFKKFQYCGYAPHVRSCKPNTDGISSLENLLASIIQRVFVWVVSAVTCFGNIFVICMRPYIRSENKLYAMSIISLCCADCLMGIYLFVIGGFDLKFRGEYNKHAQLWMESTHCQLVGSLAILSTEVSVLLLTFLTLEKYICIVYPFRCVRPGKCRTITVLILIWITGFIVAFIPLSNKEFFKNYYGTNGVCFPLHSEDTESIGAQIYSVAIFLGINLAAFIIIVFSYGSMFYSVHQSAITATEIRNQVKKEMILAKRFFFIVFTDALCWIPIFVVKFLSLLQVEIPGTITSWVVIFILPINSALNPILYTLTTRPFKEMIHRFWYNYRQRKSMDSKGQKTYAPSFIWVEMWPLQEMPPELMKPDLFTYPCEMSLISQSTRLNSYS
The assay can be described thus: RXFP1 Hu cAMP (Test A). Format: cell-based. On the set-up: expressed in transfected cells; host or cells: Jump-In T-REx CHO-K1 cells (ThermoFisher), induced with 10 ng/ml doxycycline for 24 h. The text has this:
To screen for modulators of hRXFP1, an assay identifying compounds that stimulate cAMP production via the Gs-coupled hRXFP1 receptor was used. cAMP HiRange HTRF kit (available from CisBio Bioassays, France; catalogue number 62AM6PEJ) was employed in large according to manufacturer's recommendations for detection of cAMP. The HTRF method is a competitive immunoassay between native cAMP produced by cells and cAMP labeled with the dye d2. The tracer binding is visualized with a cryptate labeled antibody for cAMP and the signal is thus inversely proportional to the amount of produced cAMP.
Cells: Jump-In™ T-REx™ CHO-K1 Cells (ThermoFisher) stably transfected with human RXFP1 was employed. Cells were induced to express human RXFP1 by treatment with 10 ng/ml doxycycline for 24 h. Cells were then cryopreserved for long term storage.
HTRF detection reagents: cAMP-d2 and anti-cAMP cryptate reconstituted according to CisBio instructions were diluted 1:40 in lysis buffer provided with the HTRF-kit.
3. 4 μL assay buffer with 1 mM IBMX (0.5 mM final concentration) to block phosphodiesterases was added with Multidrop Combi (ThermoFisher).
6. 4 μL cAMP-d2 in lysis buffer was added with Multidrop Combi.
7. 4 μL anti-cAMP cryptate in lysis buffer was added with Multidrop Combi
8. 2 h incubation at room temperature
Using a cAMP standard curve, HTRF data was converted to amount cAMP produced in the samples which was subsequentially used for calculation of concentration responses. Concentration response data were fitted with a four parameter logistic fit, the Hill equation. The results from the assay are reported in Table 36 as EC50 (μM) and Sinf (%).
Where the assay was run multiple times for the same compound, the geometric mean is reported.
Sinf is the fitted activity level, efficacy, at infinite concentration of test compound. To facilitate comparison of efficacy data, efficacy was normalized to % effect of the response stimulated by a saturating concentration of relaxin (1 nM). Where the assay was run multiple times for the same compound, the arithmetic mean is reported.

Where [1] appears, read: RXFP1 Hu cAMP, read-out: Test A EC50.

The structures appear in SMILES notation. Like-named read-outs stand apart in the source and are kept apart here.

In general, EC50 refers to the concentration giving half of the maximal effect. Turning to `COc1cc(F)c(-c2cccc([C@@H](C(=O)O)N(C)C)c2)cc1C(=O)N[C@@H]1[C@H]2CC[C@H](C2)[C@@H]1C(=O)Nc1cccc(S(=O)(=O)C(F)(F)F)c1` (racemic) [Example 294], the “Test A Sinf” value (RXFP1 Hu cAMP) was 95%. The EC50 under setting [1] is 370 nM.

Regarding `COc1cc(F)c(-c2ccc([C@@H](C(=O)O)N(C)C)cc2)cc1C(=O)N[C@@H]1[C@H]2CC[C@H](C2)[C@@H]1C(=O)Nc1cccc(S(=O)(=O)C(F)(F)F)c1` (racemic) [Example 295], the “Test A Sinf” value (RXFP1 Hu cAMP) is recorded as 100%. The EC50 under setting [1] was 500 nM.

In the case of `COc1cc(F)c(-c2ccc(C(=O)O)cc2)cc1C(=O)N[C@H]1[C@@H](C(=O)Nc2cc(F)cc(S(F)(F)(F)(F)F)c2)[C@@H]2C=C[C@H]1C2` (racemic) [Example 298], the “Test A Sinf” value (RXFP1 Hu cAMP) turned out to be 82%. For the same compound, the concentration giving a half-maximal response (EC50) under setting [1] turned out to be 910 nM.

Consider `COc1cc(F)c(-c2ccc(C(=O)O)cc2)cc1C(=O)N[C@@H]1CCC[C@@H]1C(=O)Nc1cccc(S(=O)(=O)C(F)(F)F)c1` (racemic) [Example 299], for which, for the setting “RXFP1 Hu cAMP”, the “Test A Sinf” value came to 81%.

Turning to `COc1cc(F)c(-c2cccc(C(=O)O)c2)cc1C(=O)N[C@@H]1CCC[C@@H]1C(=O)Nc1cccc(S(=O)(=O)C(F)(F)F)c1` (racemic) [Example 300], under “RXFP1 Hu cAMP”, the “Test A Sinf” value is recorded as 78%. Further, the EC50 under setting [1] worked out at 3900 nM.

As to `COc1cc(F)c(-c2ccc(C(=O)O)cc2)cc1C(=O)N[C@@H]1CC[C@@H]1C(=O)Nc1cccc(S(=O)(=O)C(F)(F)F)c1` (racemic) [Example 301], the “Test A Sinf” value (RXFP1 Hu cAMP) was determined as 69%.

Turning to `COc1cc(F)c(-c2ccc(C(=O)O)cc2)cc1C(=O)N[C@@H]1[C@@H]2CC[C@@H](C2)[C@@H]1C(=O)Nc1cccc(S(=O)(=O)C(F)(F)F)c1` (racemic) [Example 303], the “Test A Sinf” value (RXFP1 Hu cAMP) came out at 114%. Besides, the EC50 under setting [1] was determined as 260 nM.

In the case of `O=C(O)c1ccc(-c2cc(C(=O)N[C@H]3[C@@H](C(=O)Nc4cccc(S(=O)(=O)C(F)(F)F)c4)[C@@H]4C=C[C@H]3C4)ccc2F)cc1` (racemic) [Example 305, rac-2′-Fluoro-5′-(((1R,2R,3S,4S)-3-((3-((trifluoromethyl)sulfonyl)phenyl)carbamoyl)bicyclo[2.2.1]hept-5-en-2-yl)carbamoyl)-[1,1′-biphenyl]-4-carboxylic acid], the EC50 under setting [1] is over 40000 nM.

Regarding `O=C(O)c1ccc(-c2cc(C(=O)N[C@H]3[C@@H](C(=O)Nc4cccc(S(=O)(=O)C(F)(F)F)c4)[C@@H]4C=C[C@H]3C4)c(F)cc2F)cc1` (racemic) [Example 306, rac-2′,4′-Difluoro-5′-(((1R,2R,3S,4S)-3-((3-((trifluoromethyl)sulfonyl)phenyl)carbamoyl)bicyclo[2.2.1]hept-5-en-2-yl)carbamoyl)-[1,1′-biphenyl]-4-carboxylic acid], the “Test A Sinf” value (RXFP1 Hu cAMP) is 73%.

Turning to `COc1cc(F)c(-c2ccc(C(=O)O)cc2)cc1C(=O)N[C@H]1[C@@H](C(=O)Nc2ccc(F)c(C(F)(F)F)c2)[C@@H]2C=C[C@H]1C2` (racemic) [Example 307, rac-2′-Fluoro-5′-(((1R,2R,3S,4S)-3-((4-fluoro-3-(trifluoromethyl)phenyl)carbamoyl)bicyclo[2.2.1]hept-5-en-2-yl)carbamoyl)-4′-methoxy-[1,1′-biphenyl]-4-carboxylic acid], the “Test A Sinf” value (RXFP1 Hu cAMP) worked out at 90%. Further, under setting [1], the EC50 was determined as 180 nM.

On to `COc1cc(F)c(-c2ccc(C(=O)O)cc2)cc1C(=O)N[C@H]1[C@@H](C(=O)Nc2ccc(F)c(C#N)c2)[C@@H]2C=C[C@H]1C2` (racemic) [Example 309], for which, for the setting “RXFP1 Hu cAMP”, the “Test A Sinf” value was 80%. In addition, the concentration giving a half-maximal response (EC50) under setting [1] came to 4000 nM.

With `COc1cc(F)c(-c2ccc(C(=O)O)cc2)cc1C(=O)N[C@H]1[C@@H](C(=O)Nc2cc(F)cc(C#N)c2)[C@@H]2C=C[C@H]1C2` (racemic) [Example 310], the EC50 under setting [1] was over 40000 nM.

For the compound `COc1cc(F)c(-c2ccc(C(=O)O)cc2)cc1C(=O)N[C@H]1[C@@H](C(=O)N[C@H]2CCCN(S(=O)(=O)C(F)(F)F)C2)[C@@H]2C=C[C@H]1C2` (racemic) [Example 311], the “Test A Sinf” value (RXFP1 Hu cAMP) worked out at 67%. Further, under setting [1], the EC50 worked out at 7700 nM.

Take `COc1cc(F)c(-c2ccc(C(=O)O)cc2)cc1C(=O)N[C@H]1[C@@H](C(=O)N[C@@H]2CCCN(S(=O)(=O)C(F)(F)F)C2)[C@@H]2C=C[C@H]1C2` (racemic) [Example 312]: the “Test A Sinf” value (RXFP1 Hu cAMP) was 50%. For the same compound, under setting [1], the EC50 stood at 7500 nM.

Regarding `COc1cc(F)c(-c2ccc(O)c(C(=O)O)c2)cc1C(=O)N[C@@H]1[C@H]2CC[C@H](C2)[C@@H]1C(=O)Nc1cccc(S(=O)(=O)C(F)(F)F)c1` (racemic) [Example 316, rac-2′-Fluoro-4-hydroxy-4′-methoxy-5′-(((1R,2S,3R,4S)-3-((3-((trifluoromethyl)sulfonyl)phenyl)carbamoyl)bicyclo[2.2.1]heptan-2-yl)carbamoyl)-[1,1′-biphenyl]-3-carboxylic acid], the “Test A Sinf” value (RXFP1 Hu cAMP) is given as 107%. Also, the concentration for a half-maximal effect (EC50) under setting [1] was 320 nM.

Turning to `COc1cc(F)c(-c2cnc(CCC(=O)O)cn2)cc1C(=O)N[C@@H]1[C@@H]2CC[C@@H](C2)[C@@H]1C(=O)Nc1cccc(S(=O)(=O)C(F)(F)F)c1` (racemic) [Example 324, rac-3-(5-(2-Fluoro-4-methoxy-5-(((1R,2R,3S,4S)-3-((3-((trifluoromethyl)sulfonyl)phenyl)carbamoyl)bicyclo[2.2.1]heptan-2-yl)carbamoyl)phenyl)pyrazin-2-yl)propanoic acid], the “Test A Sinf” value (RXFP1 Hu cAMP) stood at 101%. In addition, the EC50 under setting [1] was found to be 190 nM.

Regarding `COc1cc(F)c(O[C@H]2CC[C@@](C)(C(=O)O)CC2)cc1C(=O)N[C@H]1[C@@H](C(=O)NCC2(C)CCC2)[C@H]2CC[C@@H]1O2` (racemic) [Example 331, (1R,4s)-4-(2-Fluoro-4-methoxy-5-(((1SR,2SR,3RS,4RS)-3-(((1-methylcyclobutyl)methyl)carbamoyl)-7-oxabicyclo[2.2.1]heptan-2-yl)carbamoyl)phenoxy)-1-methylcyclohexane-1-carboxylic acid], the “Test A Sinf” value (RXFP1 Hu cAMP) is 90%. For the same compound, the EC50 under setting [1] turned out to be 260 nM.

As to `COc1cc(F)c(O[C@H]2CC[C@@](CO)(C(=O)O)CC2)cc1C(=O)N[C@H]1[C@@H](C(=O)NCC2(C)CCC2)[C@H]2CC[C@@H]1O2` (racemic) [Example 332], the “Test A Sinf” value (RXFP1 Hu cAMP) came out at 103%.

For the compound `COc1cc(C#N)c(O[C@H]2CC[C@@](C)(C(=O)O)CC2)cc1C(=O)N[C@H]1[C@@H](C(=O)NCC2(C)CCC2)[C@H]2CC[C@@H]1O2` (racemic) [Example 333], the “Test A Sinf” value (RXFP1 Hu cAMP) is 98%.

`COc1cc(C#N)c(O[C@H]2CC[C@@](C)(C(=O)O)CC2)cc1C(=O)N[C@H]1[C@@H](C(=O)NCC2(C)CCC2)[C@H]2CC[C@@H]1N2C(=O)OC(C)(C)C` (racemic) [Example 334]: the “Test A Sinf” value (RXFP1 Hu cAMP) was 96%. Moreover, under “Test A EC50, RXFP1 Hu cAMP”, a half-maximal effect (EC50) was put at 4.3 nM.

Regarding `COc1cc(F)c(O[C@H]2CC[C@@](CO)(C(=O)O)CC2)cc1C(=O)N[C@@H]1C[C@@H](OC)C[C@@H]1C(=O)NCC(C)(C)C` (racemic) [Example 338], the “Test A Sinf” value (RXFP1 Hu cAMP) turned out to be 104%. For the same compound, the half-maximal effective concentration (EC50) under setting [1] came out at 4100 nM.

Regarding `COc1cc(F)c(O[C@H]2CC[C@@](C)(C(=O)O)CC2)cc1C(=O)N[C@@H]1COCC[C@@H]1C(=O)Nc1cccc(S(=O)(=O)C(F)(F)F)c1` (racemic) [Example 340], where the note is “RXFP1 Hu cAMP”, the “Test A Sinf” value turned out to be 100%. In addition, the concentration giving a half-maximal response (EC50) under setting [1] amounted to 1800 nM.

`COc1cc(F)c(O[C@H]2CC[C@@](C)(C(=O)O)CC2)cc1C(=O)N[C@@H]1CCOC[C@@H]1C(=O)Nc1cccc(S(=O)(=O)C(F)(F)F)c1` (racemic) [Example 341]: the “Test A Sinf” value (RXFP1 Hu cAMP) is given as 86%. The EC50 under setting [1] worked out at 200 nM.
